How the values were obtained:
[1] = tested on: LNCaP; assay: Antiproliferative activity against human LNCAP cells; type: functional, cell-based
[2] = target: Serine/threonine-protein kinase mTOR (Homo sapiens, UniProt P42345); assay: Inhibition of mTOR
[3] = target: Phosphatidylinositol 4,5-bisphosphate 3-kinase catalytic subunit alpha isoform (Homo sapiens, UniProt P42336); assay: Inhibition of PI3Kalpha
[4] = Selectivity ratio of IC50 for PI3Kalpha to IC50 for mTOR

Sequence of Phosphatidylinositol 4,5-bisphosphate 3-kinase catalytic subunit alpha isoform (P42336 whole entry, canonical isoform): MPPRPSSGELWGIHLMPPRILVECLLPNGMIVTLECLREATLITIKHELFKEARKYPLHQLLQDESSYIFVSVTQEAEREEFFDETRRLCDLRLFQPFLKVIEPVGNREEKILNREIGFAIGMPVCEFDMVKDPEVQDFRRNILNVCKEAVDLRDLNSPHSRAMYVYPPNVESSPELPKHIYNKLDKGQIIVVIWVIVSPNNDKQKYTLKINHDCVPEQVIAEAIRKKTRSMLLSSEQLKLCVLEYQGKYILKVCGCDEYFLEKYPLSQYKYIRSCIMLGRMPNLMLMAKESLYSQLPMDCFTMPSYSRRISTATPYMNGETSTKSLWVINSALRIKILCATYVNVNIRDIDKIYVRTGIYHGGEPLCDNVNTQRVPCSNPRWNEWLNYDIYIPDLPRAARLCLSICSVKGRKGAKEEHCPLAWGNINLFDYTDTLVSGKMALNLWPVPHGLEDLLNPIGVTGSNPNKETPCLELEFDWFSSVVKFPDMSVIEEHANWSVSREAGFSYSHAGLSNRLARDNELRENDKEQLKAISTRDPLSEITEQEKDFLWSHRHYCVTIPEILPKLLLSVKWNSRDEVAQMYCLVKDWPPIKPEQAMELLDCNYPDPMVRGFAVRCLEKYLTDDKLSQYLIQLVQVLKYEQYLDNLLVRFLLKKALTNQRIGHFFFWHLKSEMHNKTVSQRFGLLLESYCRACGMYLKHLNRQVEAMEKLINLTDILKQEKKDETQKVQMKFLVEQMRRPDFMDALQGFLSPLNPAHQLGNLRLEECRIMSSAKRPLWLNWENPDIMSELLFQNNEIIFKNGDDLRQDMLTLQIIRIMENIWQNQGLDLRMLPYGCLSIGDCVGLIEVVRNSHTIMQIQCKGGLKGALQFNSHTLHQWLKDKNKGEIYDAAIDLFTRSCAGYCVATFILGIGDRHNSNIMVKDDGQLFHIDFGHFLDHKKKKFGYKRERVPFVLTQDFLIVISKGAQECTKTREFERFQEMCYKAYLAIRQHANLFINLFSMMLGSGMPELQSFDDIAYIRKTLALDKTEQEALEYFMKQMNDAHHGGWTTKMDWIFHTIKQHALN

IC50 [1] [nM]	IC50 [2] [nM]	IC50 [3] [nM]	Ratio IC50 [4]	Compound
90				Cn1cc(/C=C2\Oc3ccc(NC(=O)Nc4cccnc4)cc3C2=O)c2c(N3CCC(C(=O)N4CC5CCC(C4)O5)CC3)ccnc21
50				Cn1cc(/C=C2\Oc3ccc(NC(=O)Nc4cccnc4)cc3C2=O)c2c(N3CCOCC3)ccnc21
3200				CN(Cc1cccnc1)C(=O)C1CCN(c2ccnc3c2c(/C=C2\Oc4ccc(NC(=O)Nc5cccnc5)cc4C2=O)cn3C)CC1
60000	9	4040	450	Cn1cc(/C=C2\Oc3ccc(NC(=O)Nc4cccnc4)cc3C2=O)c2c(N3CCC(C(=O)NCc4cccnc4)CC3)ccnc21
40				CN(Cc1ccccn1)C(=O)C1CCN(c2ccnc3c2c(/C=C2\Oc4ccc(NC(=O)Nc5cccnc5)cc4C2=O)cn3C)CC1
1.8		249		Cn1cc(/C=C2\Oc3ccc(NC(=O)Nc4cccnc4)cc3C2=O)c2c(N3CC4CCC3CO4)ccnc21 (configuration not stated)
> 60000			76.6	Cn1cc(/C=C2\Oc3ccc(NC(=O)Nc4ccc(N5CCOCC5)nc4)cc3C2=O)c2c(N3CC4CCC(C3)O4)ccnc21
280			3.4	Cn1cc(/C=C2\Oc3ccc(NC(=O)Nc4ccccc4)cc3C2=O)c2c(N3CC4CCC(C3)O4)ccnc21
15				Cn1cc(/C=C2\Oc3ccc(NC(=O)Nc4cccnc4)cc3C2=O)c2c(N3CC4CCC(C3)O4)ccnc21
80				CN(C)C(=O)C1CCN(c2ccnc3c2c(/C=C2\Oc4ccc(NC(=O)Nc5cccnc5)cc4C2=O)cn3C)CC1
50				CCN(CC)C(=O)C1CCN(c2ccnc3c2c(/C=C2\Oc4ccc(NC(=O)Nc5cccnc5)cc4C2=O)cn3C)CC1
300				CN(C(=O)C1CCN(c2ccnc3c2c(/C=C2\Oc4ccc(NC(=O)Nc5cccnc5)cc4C2=O)cn3C)CC1)c1cccnc1
330	70		65.7	CN1CCN(C(=O)C2CCN(c3ccnc4c3c(/C=C3\Oc5ccc(NC(=O)Nc6cccnc6)cc5C3=O)cn4C)CC2)CC1
18			12.6	Cn1cc(/C=C2\Oc3ccc(NC(=O)Nc4cccnc4)cc3C2=O)c2c(N3CCC(C(=O)N4CCCCC4)CC3)ccnc21
2800				CCNC(=O)Nc1ccc2c(c1)C(=O)/C(=C/c1cn(C)c3nccc(N4CC5CCC(C4)O5)c13)O2
23			132	CN(Cc1ccncc1)C(=O)C1CCN(c2ccnc3c2c(/C=C2\Oc4ccc(NC(=O)Nc5cccnc5)cc4C2=O)cn3C)CC1
140				CNC(=O)Nc1ccc2c(c1)C(=O)/C(=C/c1cn(C)c3nccc(N4CC5CCC(C4)O5)c13)O2
60				CN(C)CCNC(=O)Nc1ccc2c(c1)C(=O)/C(=C/c1cn(C)c3nccc(N4CC5CCC(C4)O5)c13)O2
3200		2660	148	Cn1cc(/C=C2\Oc3ccc(NC(=O)Nc4cccnc4)cc3C2=O)c2c(N3CCC(C(=O)N4CCOCC4)CC3)ccnc21
> 60000				CNC(=O)Nc1cccc2c1C(=O)/C(=C/c1cn(C)c3nccc(-c4ccccc4)c13)O2
200			25.4	Cn1cc(/C=C2\Oc3cccc(O)c3C2=O)c2c(-c3ccccc3)ccnc21
60000				CNC(=O)Nc1ccc2c(c1)C(=O)/C(=C/c1cn(C)c3nccc(-c4ccccc4)c13)O2
20	102	> 10000		CN(Cc1ccccc1)C(=O)C1CCN(c2ccnc3c2c(/C=C2\Oc4ccc(NC(=O)Nc5cccnc5)cc4C2=O)cn3C)CC1
12			111	Cn1cc(/C=C2\Oc3ccc(NC(=O)Nc4cccnc4)cc3C2=O)c2c(N3CCC(C(=O)N4CCCC4)CC3)ccnc21
2300	11	> 10000		CN(C)C1CCN(C(=O)C2CCN(c3ccnc4c3c(/C=C3\Oc5ccc(NC(=O)Nc6cccnc6)cc5C3=O)cn4C)CC2)C1 (configuration not stated)

Compound	IC50 [1] [nM]	IC50 [2] [nM]	IC50 [3] [nM]	Ratio IC50 [4]
Cn1cc(/C=C2\Oc3ccc(NC(=O)Nc4cccnc4)cc3C2=O)c2c(N3C4CCC3COC4)ccnc21	6		128	3
Cn1cc(/C=C2\Oc3ccc(NC(=O)Nc4cccnc4)cc3C2=O)c2c(N3CCC(C(=O)N4C5CCC4COC5)CC3)ccnc21	200			

Source: ChEMBL document CHEMBL1156282, “4-Substituted-7-azaindoles bearing a ureidobenzofuranone moiety as potent and selective, ATP-competitive inhibitors of the mammalian target of rapamycin (mTOR)” (Bioorg Med Chem Lett, 2010)
